In a melting point compilation (Tetko et al.; mined from patent text by program, amines drawn as free bases though some values may be those of a salt):

First: O=C1N=C(N2CCOCC2)SC1Cc1cccc(-c2ccc(O)c(C34CC5CC(CC(C5)C3)C4)c2)c1 (centres undefined)
Second: Cc1cccc(-c2[nH]c(C(C)C)nc2-c2cccc(-c3ccc(NC(=O)NN4CCOCC4)cc3)c2)n1
The melting point of the first is lower: 129 to 131 °C for the first, 146 to 148 °C for the second.

Compared with `COCc1c(C(=O)O)ncc2c1c1c(Oc3ccc([N+](=O)[O-])cc3)cccc1n2CC(=O)N(C)CCc1ccccc1`, `Cc1oc(-c2ccccc2)nc1CCOc1ccc(C[C@@H](C(=O)O)N2CCN(S(=O)(=O)c3ccc([N+](=O)[O-])cc3)CC2)cc1` is lower in melting point: 231 to 232 °C for the first, 205 to 207 °C for the second.

First: COc1ccc(S(=O)(=O)Nc2cc(Cl)ccc2/C=C/c2ccncc2)cc1
Second: Oc1ccc(Oc2ccc(Cl)cc2)cc1
The melting point of the first is higher: 190 to 193 °C for the first, 85 to 86 °C for the second.

Compared with `Cn1cc(C2OC(=O)NC2=O)c2ccccc21` (centres undefined), `Cc1c2n(c3ccccc13)C(=O)C(Cn1ccnc1C)CC2` (centres undefined) is lower in melting point: 152 to 154 °C for the first, 120 to 121 °C for the second.

First: O=C(O)CCC(Cc1ccccc1Cl)(C(=O)C=Cc1cccc(Cl)c1)c1ccccc1 (centres undefined)
Second: CN1C(=O)[C@H](NC(=O)c2ccccc2)N=C(c2ccccc2)c2ccccc21
The melting point of the first is lower: 170 to 172 °C for the first, 224 to 225 °C for the second.

Compared with `COc1cccc(CNC(=O)c2nc3scc(NC(=O)Cc4ccc(C(=O)O)cc4)c3c(=O)[nH]2)c1`, `COC(=O)CCC1=NC=C(c2ccc3c(c2)NC(=O)CO3)C(c2ccccc2)S1` (centres undefined) is lower in melting point: 218 to 219 °C for the first, 119 to 121 °C for the second.

Compared with `NCCCCCC(=O)Nc1cccc(C(=O)NCCC(=O)O)c1`, `COc1ccc(C(=O)NCCCCCCNC(=O)c2ccc(OC)cc2)cc1` is lower in melting point: 221 °C for the first, 177 to 178 °C for the second.

First: CC(C)(C)c1cc(CCc2ccccc2NC(=O)NCCCC2CCCCC2)cc(C(C)(C)C)c1O
Second: O=C(NCc1ccccc1)c1ccnc(NC(=O)C2CCCC2)c1
The melting point of the first is higher: 166 °C for the first, 55 to 57 °C for the second.

Compared with `CCCCCCCCCCCCCCCCCCOCCSCCOC(=O)NCc1ccccn1`, `CCCCCCCCCCCCCCCCSCC(CN=[N+]=[N-])NC(=O)OC(C)(C)C` (centres undefined) is higher in melting point: 60 to 62 °C for the first, 63 to 64 °C for the second.

First: O=S(CC#CCOc1ccccc1)c1ccc(Cl)cc1 (centres undefined)
Second: COCC1CN(c2ccc3cc(OCc4ccccc4)ccc3c2)C(=O)O1 (centres undefined)
The melting point of the first is lower: 102 to 103 °C for the first, 150 °C for the second.

First: CC1(C)CCCN(C(=O)[C@H]2C[C@H](S(=O)(=O)c3ccccc3)[C@@H](c3ccccc3F)N2)C1 (racemic)
Second: CC(C)(C)OC(=O)N1CCC(c2ccc3nc(-c4ccc(S(C)(=O)=O)cc4F)oc3c2)CC1
The melting point of the first is higher: 210 °C for the first, 166 to 169 °C for the second.

First: CC(C)(C)c1nc(C(N)=S)ncc1O
Second: CCOC(=O)C(NC(=O)c1cnc2cccc(C)n2c1=O)C(C)C (centres undefined)
The melting point of the first is higher: 169 to 171 °C for the first, 136 °C for the second.

First: COc1cc(OC)cc(C(=O)N2CCc3cc(O)c(OC)cc3C2=O)c1
Second: COc1ccc2c(c1F)OCc1c(C(F)(F)F)nn(-c3ccc(S(N)(=O)=O)cc3)c1-2
The melting point of the first is higher: 198 to 199 °C for the first, 133 to 138 °C for the second.

First: CCCCCCCCCCCCS(=O)(=O)Nc1cc(-c2cc3cc(F)c(F)cc3[nH]2)ccc1OC
Second: CCCCCCCCCCCc1cc2ccc(C(=O)O)cc2[nH]1
The melting point of the first is lower: 148 to 149 °C for the first, 156 to 158 °C for the second.

First: CN(C)C(=O)c1nnc(S)o1
Second: CCCN1C(=O)CN(C)C1S(=O)(=O)N=NC(=O)Nc1nc(OC)cc(OC)n1 (centres undefined)
The melting point of the first is higher: 185 to 187 °C for the first, 96 to 98 °C for the second.

First: Cc1ncc(CN2CCN(CCc3ccccc3)CC2)c(N)n1
Second: CCOC(=O)c1c(OCc2ccccc2)cc(C(F)(F)F)nc1C(F)(F)F
The melting point of the first is higher: 162 to 165 °C for the first, 56 to 58.5 °C for the second.

First: Clc1ccc(-c2cc(C3CC3)n3ncc(I)c3n2)cc1
Second: N#Cc1ncn2c1[C@@H]1CCN1C(=O)c1cc(Cl)ccc1-2
The melting point of the first is lower: 189 to 190 °C for the first, 258 to 261 °C for the second.

Compared with `O=C(CCC1OC=CO1)c1ccc2c(c1)OCO2`, `O=C1C(CCO)Oc2ccc(C(F)(F)F)cc2N1Cc1cccc(Cl)c1` (centres undefined) is lower in melting point: 94 to 96 °C for the first, 92 to 94 °C for the second.

First: O=C1CCC(c2ccc(NC3=NCCS3)cc2)=NN1
Second: C=Cc1nc(NC)sc1-c1ccncc1
The melting point of the first is higher: 217 to 218 °C for the first, 110 to 111 °C for the second.

First: O=C(OCc1ccccc1)C(C(=O)N1CC2C(=O)CCC(c3ccccc3)(c3ccccc3)C2C1)c1ccccc1 (racemic)
Second: COc1ccccc1[C@H](c1cccc2ccccc12)[C@@](C)(C#N)C(=O)N1CCN(c2cccc(C(F)(F)F)c2)CC1
The melting point of the first is higher: 210 °C for the first, 158 to 162 °C for the second.

Compared with `CCn1cc(C(=O)O)c(=O)c2cc(F)c(N3CC4CCC3CN4)nc21` (centres undefined), `Cc1ccc(NCC2CCN(C3CCCCC3)CC2)c(C(=O)Nc2ccc(Cl)cn2)c1` is lower in melting point: 250 to 253 °C for the first, 179 to 182 °C for the second.

First: C=CCc1cc(CC(=O)O)ccc1OCc1ccc2ccccc2n1
Second: CC(CC1=C(O)C(=O)c2ccccc2C1=O)C(F)(F)F (centres undefined)
The melting point of the first is lower: 130 °C for the first, 168 °C for the second.

Compared with `O=Cc1cccc(-c2nnn[nH]2)c1`, `CC(=O)Nc1nc2c(C)cnc(-c3cccc([N+](=O)[O-])c3)n2n1` is higher in melting point: 185 to 189 °C for the first, 245 to 247 °C for the second.

Compared with `CC#CC(C)(C)NC(=O)C(COC)Oc1cc(Cl)cc(Cl)c1` (centres undefined), `Cc1cc(Cl)cc(C(=O)NC(C)CSC[Si](C)(C)C)c1NC(=O)c1cc(Br)nn1-c1ncccc1Cl` (centres undefined) is higher in melting point: 107 to 110 °C for the first, 151 to 153 °C for the second.

For `CN1CCNC(=O)c2cccc(N)c21`, the melting point was 130 to 133 °C.
